Reference: paper PMC11284802 (Journal of Medicinal Chemistry, 2024)
Blank lines part the entries; values can stand above or below the molecule they belong to.

Columns and labels:
[1] = Mouse liver microsomal stability; type: in vitro ADME; conditions: male, CD-1, mouse, liver microsomes, pH 7.4
[2] = Human liver microsomal CLint; type: in vitro ADME; conditions: liver microsomes
[3] = Mouse hepatocyte stability; type: in vitro ADME; conditions: male, CD-1, mouse, cryopreserved hepatocytes
[4] = Human hepatocyte stability; type: in vitro ADME; conditions: cryopreserved hepatocytes
[5] = tested on: mouse hepatitis virus (MHV); test: MHV assay; type: cell-based
[6] = tested on: phosphorylation of CSNK2 substrate EIF2S2; test: Inhibition of EIF2S2 phosphorylation in vitro; type: cell-based, human; conditions: A549-ACE2 cells, 1 or 5 μM, 24 h
[7] = tested on: A549-ACE2 cells; test: LDH cytotoxicity assay; type: cell-based, human; conditions: concentrations below 10 μM
[8] = Plasma stability; type: in vitro ADME; conditions: human plasma, 37 °C, 0 and 6 h
[9] = tested on: EIF2S2 (phospho-Ser2); test: In vivo CSNK2 inhibition; set-up: species or system CD-1 mice; conditions: 10 mg/kg i.p. b.i.d., 36 h, vs vehicle
[10] = tested on: AKT (phospho-Ser129); test: In vivo CSNK2 inhibition; set-up: species or system CD-1 mice; conditions: 10 mg/kg i.p. b.i.d., 36 h, vs vehicle
[11] = biological target: T1, DYRK1A (Homo sapiens, UniProt Q13627); test: NanoBRET dose-response, off-target kinase; type: cell-based; conditions: poor assay window
[12] = biological target: DAPK2 (Homo sapiens, UniProt Q9UIK4); test: NanoBRET K192 panel; type: cell-based; conditions: read-out: NanoBRET K192 % occupancy at 10 μM, DAPK2
[13] = biological target: T2, HIPK4 (Homo sapiens, UniProt Q8NE63); test: NanoBRET K192 panel; type: cell-based; conditions: read-out: NanoBRET K192 % occupancy at 10 μM, HIPK4
T2 sequence (Q8NE63 1-616): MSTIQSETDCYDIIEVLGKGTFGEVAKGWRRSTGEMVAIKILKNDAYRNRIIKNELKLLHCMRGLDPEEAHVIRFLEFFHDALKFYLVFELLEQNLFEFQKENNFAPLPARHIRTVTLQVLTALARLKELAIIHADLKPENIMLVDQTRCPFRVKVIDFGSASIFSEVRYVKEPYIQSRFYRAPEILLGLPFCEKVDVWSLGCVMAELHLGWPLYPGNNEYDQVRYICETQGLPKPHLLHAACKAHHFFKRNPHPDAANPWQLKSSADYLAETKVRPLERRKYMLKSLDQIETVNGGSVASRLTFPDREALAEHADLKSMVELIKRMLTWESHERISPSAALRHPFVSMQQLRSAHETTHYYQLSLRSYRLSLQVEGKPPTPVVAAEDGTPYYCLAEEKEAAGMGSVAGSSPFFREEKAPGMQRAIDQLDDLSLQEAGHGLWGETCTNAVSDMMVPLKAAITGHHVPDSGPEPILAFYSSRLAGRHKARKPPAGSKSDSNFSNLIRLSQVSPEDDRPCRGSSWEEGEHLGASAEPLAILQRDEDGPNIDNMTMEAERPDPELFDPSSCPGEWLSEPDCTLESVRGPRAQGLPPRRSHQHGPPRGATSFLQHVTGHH

[14] = biological target: CLK4 (Homo sapiens, UniProt Q9HAZ1); test: NanoBRET K192 panel; type: cell-based; conditions: read-out: NanoBRET K192 % occupancy at 10 μM, CLK4
[15] = biological target: PHKG1 (Homo sapiens, UniProt Q16816); test: NanoBRET K192 panel; type: cell-based; conditions: read-out: NanoBRET K192 % occupancy at 10 μM, PHKG1
[16] = biological target: T1, DYRK1A; test: NanoBRET K192 panel; type: cell-based; conditions: read-out: NanoBRET K192 % occupancy at 10 μM, DYRK1A

Chain of PHKG1 (Q16816 whole entry): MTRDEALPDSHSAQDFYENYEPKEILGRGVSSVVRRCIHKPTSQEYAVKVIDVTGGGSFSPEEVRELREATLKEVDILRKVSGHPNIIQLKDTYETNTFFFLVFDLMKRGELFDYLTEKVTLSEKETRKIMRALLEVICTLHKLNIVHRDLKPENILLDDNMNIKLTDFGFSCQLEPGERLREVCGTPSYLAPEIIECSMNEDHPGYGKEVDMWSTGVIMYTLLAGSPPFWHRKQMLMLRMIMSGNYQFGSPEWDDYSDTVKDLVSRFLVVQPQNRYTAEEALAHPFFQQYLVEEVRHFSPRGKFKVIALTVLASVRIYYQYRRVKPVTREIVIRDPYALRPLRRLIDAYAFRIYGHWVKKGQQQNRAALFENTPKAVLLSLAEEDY
Chain of CLK4 (Q9HAZ1 whole entry): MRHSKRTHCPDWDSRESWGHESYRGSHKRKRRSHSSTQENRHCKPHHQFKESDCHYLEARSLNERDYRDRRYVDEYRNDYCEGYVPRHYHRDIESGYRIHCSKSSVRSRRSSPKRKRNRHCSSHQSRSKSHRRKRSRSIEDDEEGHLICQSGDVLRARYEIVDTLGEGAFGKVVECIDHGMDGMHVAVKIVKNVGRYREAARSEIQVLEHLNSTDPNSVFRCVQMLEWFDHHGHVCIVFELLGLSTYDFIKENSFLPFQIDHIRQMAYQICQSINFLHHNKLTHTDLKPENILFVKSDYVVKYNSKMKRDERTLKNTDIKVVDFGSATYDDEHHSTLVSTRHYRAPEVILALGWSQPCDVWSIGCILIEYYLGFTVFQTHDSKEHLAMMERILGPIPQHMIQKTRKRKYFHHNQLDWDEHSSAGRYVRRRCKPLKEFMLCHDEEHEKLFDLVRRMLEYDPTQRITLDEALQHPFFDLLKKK
Chain of DAPK2 (Q9UIK4 whole entry): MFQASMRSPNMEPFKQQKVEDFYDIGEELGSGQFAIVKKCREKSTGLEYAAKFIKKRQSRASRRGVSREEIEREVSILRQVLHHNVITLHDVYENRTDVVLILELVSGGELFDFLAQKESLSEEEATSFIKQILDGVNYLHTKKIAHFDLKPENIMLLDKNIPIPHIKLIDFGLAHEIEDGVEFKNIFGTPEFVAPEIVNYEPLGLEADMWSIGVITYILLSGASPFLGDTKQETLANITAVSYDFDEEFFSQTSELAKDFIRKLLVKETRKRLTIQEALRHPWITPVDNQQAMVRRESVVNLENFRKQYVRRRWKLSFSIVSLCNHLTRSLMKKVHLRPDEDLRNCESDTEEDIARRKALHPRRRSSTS

SMILES: CC(=O)Nc1cccc(Nc2cc(NC3CC3)n3ncc(C#N)c3n2)c1 [Compound 3, N-(3-((3-Cyano-7-(cyclopropylamino)pyrazolo[1,5-a]pyrimidin-5-yl)amino)phenyl)acetamide]
remaining at 0.5 h, 5 μM [1]: 22%
CLint scaled at 1 h [2]: 1.5 L/h/kg
CLint scaled at 2 h, 1 µM [3]: 31.2 L/h/kg
CLint scaled at 2 h, 1 µM [4]: 3.48 L/h/kg

SMILES: N#Cc1cnn2c(NC3CC3)cc(Nc3cccc(-n4cnnc4)c3)nc12 [Compound 14, 5-((3-(4H-1,2,4-Triazol-4-yl)phenyl)amino)-7-(cyclopropylamino)pyrazolo[1,5-a]pyrimidine-3-carbonitrile]
remaining at 0.5 h, 5 μM [1]: 74%
CLint scaled at 1 h [2]: 0.456 L/h/kg
CLint scaled at 2 h, 1 µM [3]: 9.6 L/h/kg
CLint scaled at 2 h, 1 µM [4]: 0.96 L/h/kg

SMILES: CN[C@H]1CCCN(c2ccc(Nc3cc(NC4CC4)n4ncc(C#N)c4n3)cc2-n2cnnc2)C1 [Compound 69, (S)-7-(Cyclopropylamino)-5-((4-(3-(methylamino)piperidin-1-yl)-3-(4H-1,2,4-triazol-4-yl)phenyl)amino)pyrazolo[1,5-a]pyrimidine-3-carbonitrile]
fold decrease in MHV potency ([5]; relative to 68): 3 fold

More lines, main results first:

IC50 ([5]; read-out: MHV IC50, positive control of the assay): 1.2 µM
SMILES: O=c1nc(NO)ccn1[C@@H]1O[C@H](CO)[C@@H](O)[C@H]1O [EIDD-1931, reference compound]

plasma stability [8]: stable in plasma
receptor occupancy at 10 µM [12]: 50 to 75%
receptor occupancy at 10 µM [13]: 50 to 75%
receptor occupancy at 10 µM [14]: 50 to 75%
receptor occupancy at 10 µM [15]: 50 to 75%
receptor occupancy at 10 µM [16]: 50 to 75%
SMILES: CCN(CCN)c1ccc(Nc2cc(NC3CC3)n3ncc(C#N)c3n2)cc1-n1cnnc1 [Compound 53, 5-((4-((2-Aminoethyl)(ethyl)amino)-3-(4H-1,2,4-triazol-4-yl)phenyl)amino)-7-(cyclopropylamino)pyrazolo[1,5-a]pyrimidine-3-carbonitrile]
phosphorylation levels of CSNK2 substrate EIF2S2 [6]: reduction in phosphorylation levels
cell viability by LDH assay [7]: No decrease in cell viability
phosphorylation of Ser2 of EIF2S2 in mouse lung [9]: no statistically significant reduction
phosphorylation of Ser129 of AKT in mouse lung [10]: no statistically significant reduction
DYRK1A NanoBRET dose-response occupancy [11]: d Poor assay window observed but no occupancy observed up to 3 μM. n.d. = not determined.
